# Measurements from US20140120060A1, “TREATMENT OF RHEUMATOID ARTHRITIS AND ASTHMA USING PI3 KINASE INHIBITORS” (INFINITY PHARMACEUTICALS, INC., priority 2012, published 2014).
# Several values for one entry are separate records, joined by “and”; a condition that tells them apart may be missing. Identical values can stand only once. Like-named read-outs stand apart in the source and are kept apart here. Marks after values point to notes of the source that are not given here.
# What was measured:
# B cell = B cell proliferation; type: cell-based
# Human T-cell = Human T-cell proliferation; type: cell-based
# PI3K-β = target: T1, PI3K-β (Homo sapiens, UniProt P42338); test: PI3K-β specific assay in platelets (thrombin peptide, activated GPIIb/IIIa); type: cell-based
# T1 construct: from tissue; host or cells: platelets in whole blood
# [1] = Plasma protein binding, human plasma; type: in vitro ADME
# Excerpt: (§1) […]. […] […].
# PBMCs [2] = test: R848 induced cytokine production in PBMCs; type: cell-based, human
# Procedure: (§2) These experiments were conducted using PBMCs.
# PBMCs [3] = test: LPS induced cytokine production in PBMCs; type: cell-based, human
# Procedure: as §2
# [4] = test system: LPS-induced pulmonary inflammation; test: Murine model of LPS-induced lung inflammation; type: in vivo, mice; details: 3 mg/kg PO 60 minutes prior to LPS; 6 h after challenge
# Procedure: Multiple parameters of pulmonary inflammation were determined 6 h after LPS challenge. Instillation of LPS induced significant influx of leukocytes, mostly neutrophils, into the airways, as assessed by counting the number of cells in the bronchoalveolar lavage (BAL) fluid.
# hERG channel current = hERG channel current (Homo sapiens, UniProt Q12809); test: In vitro hERG assay; type: cell-based
# Sequence of hERG channel current (Q12809 whole entry): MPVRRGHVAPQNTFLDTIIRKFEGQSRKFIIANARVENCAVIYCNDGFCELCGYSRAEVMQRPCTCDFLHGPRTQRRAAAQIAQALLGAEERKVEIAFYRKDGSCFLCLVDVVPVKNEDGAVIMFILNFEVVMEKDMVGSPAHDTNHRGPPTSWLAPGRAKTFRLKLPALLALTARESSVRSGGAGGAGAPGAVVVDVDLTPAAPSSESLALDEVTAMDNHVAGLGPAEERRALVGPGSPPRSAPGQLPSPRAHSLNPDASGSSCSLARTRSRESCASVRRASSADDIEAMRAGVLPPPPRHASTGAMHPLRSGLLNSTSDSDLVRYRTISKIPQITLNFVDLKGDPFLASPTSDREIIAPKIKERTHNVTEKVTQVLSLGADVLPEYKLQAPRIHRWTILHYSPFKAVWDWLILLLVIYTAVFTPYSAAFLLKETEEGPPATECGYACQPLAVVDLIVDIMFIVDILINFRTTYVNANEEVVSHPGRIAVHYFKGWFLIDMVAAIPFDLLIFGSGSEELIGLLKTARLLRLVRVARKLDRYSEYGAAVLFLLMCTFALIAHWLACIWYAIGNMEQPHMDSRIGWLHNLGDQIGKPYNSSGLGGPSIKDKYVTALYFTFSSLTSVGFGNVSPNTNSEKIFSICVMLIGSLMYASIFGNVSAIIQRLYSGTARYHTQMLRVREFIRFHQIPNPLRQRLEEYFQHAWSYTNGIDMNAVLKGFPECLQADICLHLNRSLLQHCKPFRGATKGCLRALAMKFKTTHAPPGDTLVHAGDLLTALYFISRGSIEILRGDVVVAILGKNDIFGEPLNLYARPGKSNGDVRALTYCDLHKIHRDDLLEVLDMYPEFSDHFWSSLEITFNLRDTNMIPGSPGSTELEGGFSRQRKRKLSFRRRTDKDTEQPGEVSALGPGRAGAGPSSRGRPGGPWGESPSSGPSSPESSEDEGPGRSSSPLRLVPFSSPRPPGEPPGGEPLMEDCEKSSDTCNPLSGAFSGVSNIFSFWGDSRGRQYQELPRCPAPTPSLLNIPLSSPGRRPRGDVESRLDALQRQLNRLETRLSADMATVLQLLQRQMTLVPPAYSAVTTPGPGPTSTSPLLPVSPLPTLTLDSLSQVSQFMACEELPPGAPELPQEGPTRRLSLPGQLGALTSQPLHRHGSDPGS
# [5] = Plasma protein binding, rat plasma; type: in vitro ADME; details: 100 μM (41700 ng/mL)
# Excerpt: as §1
# [6] = Plasma protein binding, monkey plasma; type: in vitro ADME; details: 100 μM (41700 ng/mL)
# Excerpt: as §1
# [7] = Pharmacokinetics in Beagle dogs; type: in vivo, dog; details: PO 5 mg/kg
# Caco-2 cell monolayers = test: Membrane permeability in Caco-2 cell monolayers; type: in vitro ADME, human
# human P-glycoprotein = target: T2, human P-glycoprotein (Homo sapiens, UniProt P08183); test: Interaction with human P-glycoprotein in Caco-2 cell monolayers; type: in vitro ADME
# T2 construct: endogenous in cells; host or cells: Caco-2 cell monolayers
# T2 sequence (P08183 whole entry): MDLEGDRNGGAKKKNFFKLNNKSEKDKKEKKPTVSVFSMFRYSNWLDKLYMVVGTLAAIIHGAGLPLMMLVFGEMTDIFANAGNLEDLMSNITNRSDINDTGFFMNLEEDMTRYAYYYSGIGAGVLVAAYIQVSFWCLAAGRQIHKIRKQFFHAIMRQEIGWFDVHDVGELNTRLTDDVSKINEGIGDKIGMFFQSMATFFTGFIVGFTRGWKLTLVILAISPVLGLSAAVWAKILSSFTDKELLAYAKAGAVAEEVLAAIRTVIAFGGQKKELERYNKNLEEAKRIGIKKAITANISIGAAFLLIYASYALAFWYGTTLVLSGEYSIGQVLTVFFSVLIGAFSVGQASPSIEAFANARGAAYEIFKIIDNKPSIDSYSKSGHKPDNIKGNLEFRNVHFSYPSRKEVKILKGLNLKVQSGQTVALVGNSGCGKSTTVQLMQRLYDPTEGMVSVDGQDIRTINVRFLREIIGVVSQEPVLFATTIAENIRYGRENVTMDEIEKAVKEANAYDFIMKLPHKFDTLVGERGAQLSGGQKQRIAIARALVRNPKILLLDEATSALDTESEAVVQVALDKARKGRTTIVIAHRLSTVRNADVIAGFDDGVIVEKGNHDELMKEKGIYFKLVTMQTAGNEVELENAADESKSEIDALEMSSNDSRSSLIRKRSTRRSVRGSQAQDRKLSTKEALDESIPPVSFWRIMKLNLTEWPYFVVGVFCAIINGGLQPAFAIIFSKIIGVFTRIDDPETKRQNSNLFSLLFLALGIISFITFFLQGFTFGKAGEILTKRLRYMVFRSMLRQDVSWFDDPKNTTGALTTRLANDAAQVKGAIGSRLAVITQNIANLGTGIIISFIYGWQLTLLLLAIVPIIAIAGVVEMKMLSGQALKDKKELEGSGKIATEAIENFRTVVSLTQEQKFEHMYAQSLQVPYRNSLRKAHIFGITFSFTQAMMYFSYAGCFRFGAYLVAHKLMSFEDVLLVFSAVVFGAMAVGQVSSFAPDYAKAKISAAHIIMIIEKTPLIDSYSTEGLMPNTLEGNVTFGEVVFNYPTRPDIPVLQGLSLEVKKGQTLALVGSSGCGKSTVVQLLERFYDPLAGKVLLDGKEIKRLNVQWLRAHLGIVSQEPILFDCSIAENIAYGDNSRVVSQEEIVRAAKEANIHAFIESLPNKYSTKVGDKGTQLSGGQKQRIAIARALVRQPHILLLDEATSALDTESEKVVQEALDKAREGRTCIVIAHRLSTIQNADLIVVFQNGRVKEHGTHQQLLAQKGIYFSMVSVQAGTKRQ
# [8] = 13-week repeat-dose safety study in rats; details: both sexes, in vivo, oral; rat, Day 91, combined sexes, 25 mg/kg/day; read-out: mean AUC0-24 hr at the NOAEL
# Procedure: The no observed adverse effect level (NOAEL) in the 13-week rat study was 25 mg/kg/day (150 mg/m^2/day) and the NOAEL in the 13-week monkey study was 5 mg/kg/day (60 mg/m^2/day). On Day 91, the mean AUC0-24 hr values for combined sexes at the NOAELs were 14150 ng*h/mL in the rat, and 4015 ng*h/mL in the monkey.
# [9] = Embryo/fetal developmental toxicity study in rats; details: female, rat, in vivo; pregnant rats, last day of dosing, 35 mg/kg/day; read-out: mean AUC0-24 hr at the NOAEL
# [10] = Embryo/fetal developmental toxicity study in rabbits; details: female, rabbit, in vivo; pregnant rabbits, last day of dosing, 75 mg/kg/day; read-out: mean AUC0-24 hr at the NOAEL
# [11] = Clinical study in healthy adult subjects: pharmacokinetics; type: in vivo, human; details: for half-life / AUC(0-t) / AUC(0-inf) / Cmax / Vd/F: human, plasma; for Vd/F: read-out: Vz/F
# [12] = In vitro genetic toxicity studies
# respiratory system = test: Respiratory study in Sprague-Dawley rat; details: male rats, single oral dose up to 350 mg/kg
# [13] = Clinical study in healthy adult subjects: safety
# PI3K δ = PI3K δ (Homo sapiens, UniProt O00329); test: In vitro PI3K δ inhibition (lipid kinase assay, TLC or HTRF); details: selectivity
# Sequence of PI3K δ (O00329 whole entry): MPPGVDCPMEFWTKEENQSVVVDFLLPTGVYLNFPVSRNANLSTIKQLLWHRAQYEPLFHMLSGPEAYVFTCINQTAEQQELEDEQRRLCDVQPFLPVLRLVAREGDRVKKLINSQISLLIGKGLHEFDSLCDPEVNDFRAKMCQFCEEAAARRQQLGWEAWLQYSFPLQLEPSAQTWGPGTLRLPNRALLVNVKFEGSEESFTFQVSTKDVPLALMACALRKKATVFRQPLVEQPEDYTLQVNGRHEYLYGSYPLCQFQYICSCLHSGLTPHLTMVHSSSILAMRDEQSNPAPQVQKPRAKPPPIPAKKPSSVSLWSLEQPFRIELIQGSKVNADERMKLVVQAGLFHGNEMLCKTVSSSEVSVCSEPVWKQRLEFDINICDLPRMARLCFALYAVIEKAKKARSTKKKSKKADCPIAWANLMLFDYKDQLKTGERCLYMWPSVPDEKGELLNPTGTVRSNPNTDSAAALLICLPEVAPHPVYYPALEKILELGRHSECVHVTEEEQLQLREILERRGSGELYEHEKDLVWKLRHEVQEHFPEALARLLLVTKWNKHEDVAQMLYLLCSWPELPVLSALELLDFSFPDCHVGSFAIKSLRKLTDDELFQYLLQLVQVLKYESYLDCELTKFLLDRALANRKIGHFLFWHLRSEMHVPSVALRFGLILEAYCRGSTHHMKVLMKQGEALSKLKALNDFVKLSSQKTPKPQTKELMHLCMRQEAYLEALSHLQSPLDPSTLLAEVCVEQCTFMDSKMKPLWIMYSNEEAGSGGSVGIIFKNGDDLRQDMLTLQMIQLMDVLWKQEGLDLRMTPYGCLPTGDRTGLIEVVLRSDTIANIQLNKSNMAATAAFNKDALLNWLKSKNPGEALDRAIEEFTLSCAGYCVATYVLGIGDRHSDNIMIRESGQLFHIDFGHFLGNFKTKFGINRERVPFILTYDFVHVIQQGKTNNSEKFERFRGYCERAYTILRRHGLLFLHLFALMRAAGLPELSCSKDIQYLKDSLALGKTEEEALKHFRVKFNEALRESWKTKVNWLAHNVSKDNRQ
# Sequence of PI3K δ (P27986 whole entry partner): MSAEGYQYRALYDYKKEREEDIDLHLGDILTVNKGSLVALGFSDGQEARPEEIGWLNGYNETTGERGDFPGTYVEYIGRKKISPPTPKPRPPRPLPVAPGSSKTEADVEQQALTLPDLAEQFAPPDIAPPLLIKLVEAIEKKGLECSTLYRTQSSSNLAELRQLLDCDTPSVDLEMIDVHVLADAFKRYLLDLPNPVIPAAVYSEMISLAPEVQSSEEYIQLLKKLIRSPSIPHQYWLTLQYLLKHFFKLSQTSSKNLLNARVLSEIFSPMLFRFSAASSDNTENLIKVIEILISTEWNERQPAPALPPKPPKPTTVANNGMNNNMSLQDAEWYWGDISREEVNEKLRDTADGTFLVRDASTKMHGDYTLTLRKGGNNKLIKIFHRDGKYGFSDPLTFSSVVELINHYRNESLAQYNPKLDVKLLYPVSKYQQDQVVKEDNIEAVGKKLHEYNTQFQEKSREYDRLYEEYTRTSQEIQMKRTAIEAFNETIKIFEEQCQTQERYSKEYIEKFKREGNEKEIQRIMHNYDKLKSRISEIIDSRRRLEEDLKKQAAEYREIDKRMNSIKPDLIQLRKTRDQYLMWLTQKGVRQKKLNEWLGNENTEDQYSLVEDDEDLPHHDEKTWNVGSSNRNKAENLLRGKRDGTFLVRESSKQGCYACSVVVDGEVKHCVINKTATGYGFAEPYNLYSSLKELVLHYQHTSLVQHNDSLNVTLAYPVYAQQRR
# [14] = DDI portion, 10 mg with 200 mg q12h ketoconazole
# [15] = single oral dose 1 mg, mean (%CV)
# [16] = single oral dose 2 mg, mean (%CV)
# [17] = single oral dose 5 mg, mean (%CV)
# [18] = single oral dose 10 mg, mean (%CV)
# [19] = single oral dose 20 mg, mean (%CV)
# [20] = single oral dose 30 mg, mean (%CV)
compound,measurement,setting,value
C[C@H](Nc1ncnc2[nH]cnc12)c1cc2cccc(Cl)c2c(=O)n1-c1ccccc1 [Compound 292],EC50,B cell,< 100 nM
same,EC50,Human T-cell,9.5 nM
same,window between PI3K-γ and PI3K-β inhibition in whole blood,PI3K-β,about 4 fold
same,protein bound in human plasma,[1],95%
same,protein bound in human plasma,[1]; 100 μM (41700 ng/mL),85.9%
same,R848 induced IFN-α,PBMCs [2],did not detectably affect
same,R848 induced IL-1,PBMCs [2],slightly inhibited
same,R848 induced IL-6,PBMCs [2],did not detectably affect
same,R848 induced IL-8,PBMCs [2],did not detectably affect
same,R848 induced TNF-α,PBMCs [2],did not detectably affect
same,LPS induced IL-1 production,PBMCs [3],enhanced
same,LPS induced IL-6 production,PBMCs [3],enhanced
same,LPS induced IL-8 production,PBMCs [3],did not detectably affect
same,LPS induced TNF-α production,PBMCs [3],enhanced
same,LPS-induced total leukocyte and neutrophil influx in BAL fluid,[4],inhibited
same,Hill coefficient (hERG),hERG channel current,1.3
same,IC50 on hERG potassium current,hERG channel current,20.8 µg/mL
same,protein bound in rat plasma,[5],85.8%
same,protein bound in monkey plasma,[6],76.8%
same,Foral,[7]; calculated using 0.5 mg/kg IV dose as reference and AUC0-last,"97^g,i %"
same,Foral,[7]; calculated using 1 mg/kg IV dose as reference and AUC0-last,"40% and 40^h,i %"
same,cell membrane permeability,Caco-2 cell monolayers,moderate
same,P-gp substrate status,human P-glycoprotein,is a P-gp substrate
same,inhibition of active transport of other P-gp substrates,human P-glycoprotein,has the potential to inhibit the active transport of other P-gp substrates
same,AUC(0-t),[8],14200 ng·h/mL
same,AUC(0-t),[9],62200 ng·h/mL
same,AUC(0-t),[10],66200 ng·h/mL
same,excretion of unchanged compound in urine,[11],< 2 % of the administered dose
same,time to peak plasma concentrations,[11],0.5 to 1 h
same,accumulation,[11]; 14 days of Q12 h oral administration,less than 2 fold
same,increase of AUC0-inf in the presence of ketoconazole,[11]; [14],~295%
same,increase of AUC0-last in the presence of ketoconazole,[11]; [14],~285%
same,increase of Cmax in the presence of ketoconazole,[11]; [14],approximately 66%
same,decrease of Cmax in the presence of a high fat meal,"[11]; food effect portion, 25 mg",approximately 10%
same,half-life,"[11]; oral, following a single dose, read-out: half-life",3.5 to 9.5 h
same,AUC(0-t),"[11]; po, 1 mg, single oral dose 1 mg, mean (%CV), read-out: AUC(0-24)",149 ng·h/mL
same,AUC(0-t),"[11]; po, 1 mg, single oral dose 1 mg, mean (%CV), read-out: AUC(0-t)",148 ng·h/mL
same,half-life,"[11]; po, 1 mg, single oral dose 1 mg, mean (%CV), read-out: T1/2 (converted)",3.52 h
same,AUC(0-t),"[11]; po, 2 mg, single oral dose 2 mg, mean (%CV), read-out: AUC(0-24)",289 ng·h/mL
same,AUC(0-t),"[11]; po, 2 mg, single oral dose 2 mg, mean (%CV), read-out: AUC(0-t)",291 ng·h/mL
same,half-life,"[11]; po, 2 mg, single oral dose 2 mg, mean (%CV), read-out: T1/2 (converted)",5.43 h
same,AUC(0-t),"[11]; po, 5 mg, single oral dose 5 mg, mean (%CV), read-out: AUC(0-24)",733 ng·h/mL
same,AUC(0-t),"[11]; po, 5 mg, single oral dose 5 mg, mean (%CV), read-out: AUC(0-t)",735 ng·h/mL
same,half-life,"[11]; po, 5 mg, single oral dose 5 mg, mean (%CV), read-out: T1/2 (converted)",5.43 h
same,AUC(0-t),"[11]; po, 10 mg, single oral dose 10 mg, mean (%CV), read-out: AUC(0-24)",891 ng·h/mL
same,AUC(0-t),"[11]; po, 10 mg, single oral dose 10 mg, mean (%CV), read-out: AUC(0-t)",905 ng·h/mL
same,half-life,"[11]; po, 10 mg, single oral dose 10 mg, mean (%CV), read-out: T1/2 (converted)",9.47 h
same,AUC(0-t),"[11]; po, 20 mg, single oral dose 20 mg, mean (%CV), read-out: AUC(0-24)",2190 ng·h/mL
same,AUC(0-t),"[11]; po, 20 mg, single oral dose 20 mg, mean (%CV), read-out: AUC(0-t)",2240 ng·h/mL
same,half-life,"[11]; po, 20 mg, single oral dose 20 mg, mean (%CV), read-out: T1/2 (converted)",7.79 h
same,AUC(0-t),"[11]; po, 30 mg, single oral dose 30 mg, mean (%CV), read-out: AUC(0-24)",3260 ng·h/mL
same,AUC(0-t),"[11]; po, 30 mg, single oral dose 30 mg, mean (%CV), read-out: AUC(0-t)",3380 ng·h/mL
same,half-life,"[11]; po, 30 mg, single oral dose 30 mg, mean (%CV), read-out: T1/2 (converted)",8.12 h
same,AUC(0-inf),[11]; [15],151 ng·h/mL
same,Cmax,[11]; [15],43.4 ng/mL
same,Vd/F,[11]; [15],38.8 L
same,AUC(0-inf),[11]; [16],296 ng·h/mL
same,Cmax,[11]; [16],78.8 ng/mL
same,Vd/F,[11]; [16],57.9 L
same,AUC(0-inf),[11]; [17],743 ng·h/mL
same,Cmax,[11]; [17],246 ng/mL
same,Vd/F,[11]; [17],53 L
same,AUC(0-inf),[11]; [18],914 ng·h/mL
same,Cmax,[11]; [18],454 ng/mL
same,Vd/F,[11]; [18],147 L
same,AUC(0-inf),[11]; [19],2250 ng·h/mL
same,Cmax,[11]; [19],997 ng/mL
same,Vd/F,[11]; [19],99.1 L
same,AUC(0-inf),[11]; [20],3400 ng·h/mL
same,Cmax,[11]; [20],1140 ng/mL
same,Vd/F,[11]; [20],113 L
same,genetic toxicity,[12],no genetic toxicity
same,"respiratory parameters (respiratory rate, tidal volume, minute volume)",respiratory system,no Compound 292-related effects
same,deaths and serious adverse events (SAEs),[13]; all doses evaluated,no deaths and no serious adverse events
same,safety laboratory or electrocardiogram (ECG) abnormalities,[13]; any portion of the study,No clinically significant safety laboratory or electrocardiogram (ECG) abnormalities
same,QTcF at any assessment,[13]; serial ECGs,≤ 500 ms
same,largest change from baseline in QTcF,[13]; serial ECGs,37 ms
same,tolerability,[13]; single doses up to 30 mg and up to 10 mg total daily dose for 14 days,well tolerated
same,"lower dose inhibiting PI3K-δ compared to PI3K-γ, PI3K-β or PI3K-α",PI3K δ,at least 10 fold
